The results in this text go back to US5130339A, “Phenylethanolaminomethyltetralins and pharmaceutical use” (Sanofi, priority 1989, dated 1992).

For assay [1], the system named is isolated rat uterus. In words: Effect on spontaneous uterus motility, same general method on isolated rat uterus (in vitro). Particulars: for selectivity ratio (EC50 uterus / EC50 colon): colon versus uterus; for EC50: isolated rat uterus, spontaneous motility. The assay is classed as cell-based.
Assay [2] deals with isolated proximal colon rat strips. In words: Reduction of spontaneous contractile activity of isolated proximal colon rat strips (in vitro). Particulars: Krebs-Ringer, 37° C., read-out: EC50, on colon (concentration effective to reduce by 50% the contractile activity observed in controls). The assay is classed as cell-based. The source says: In particular, their effects in reducing colon spontaneous motility have been observed in in vitro normalized pharmacological tests and has been confirmed in the animal in vivo.
In the in vitro tests, the capability of different concentrations of the phenylethanolaminomethyltetralins of the present invention to reduce, under particular normalised conditions, the spontaneous contractile activity of isolated proximal colon rat strips has been evaluated.
Not fasted male rats weighing 250-300 g are sacrificed. The proximal part of the colon, approximately a 2 to 3 cm segment, is removed and suspended in a 20-ml organ bath containing oxygenated (5% CO2, 95% O2) Krebs-Ringer solution with the following mM composition: NaCl 118.4; KCl 4.7; CaCl2 2.45; MgSO4 1.16; NaH2 PO4 3.7; glucose 5.6; NaHCO3 30.9, kept at a constant temperature of 37° C. The colon strips submitted to a 1 g traction spontaneously contract. The test compounds are added thereto after stabilisation of the preparation (2h).
The EC50, i.e. the concentration which is effective to reduce by 50% the contractile activity observed in controls, is determined.

For `COc1ccc2c(c1)CC(CNCC(O)c1cccc(Cl)c1)CC2.Cl` (stereo not drawn) [Example 4, N-[(7-methoxy-1,2,3,4-tetrahydronaphth-2-yl)methyl]-2-hydroxy-2-(3-chlorophenyl)ethanamine hydrochloride], in assay [1], the “selectivity ratio (EC50 uterus / EC50 colon)” value was found to be 57 and the EC50 came out at 2450 nM. Moreover, the EC50 in assay [2] was 43 nM.

Consider `COc1ccc2c(c1)CC(NCC(O)c1cccc(Cl)c1)CC2.Cl` (stereo not drawn) [Example 7 of EP-B-211,721, N-(7-methoxy-1,2,3,4-tetrahydronaphth-2-yl)-2-hydroxy-2-(3-chlorophenyl)ethanamine hydrochloride], for which, in assay [1], the “selectivity ratio (EC50 uterus / EC50 colon)” value is “lower than 2” and the EC50 came out at 350 nM. The EC50 in assay [2] was 194 nM.

In the case of `Oc1ccc2c(c1)CC(NCC(O)c1cccc(Cl)c1)CC2` (stereo not drawn) [Example 8 of EP-B-211,721], in assay [1], the “selectivity ratio (EC50 uterus / EC50 colon)” value turned out to be 1 and the EC50 came out at 110 nM. Also, the EC50 in assay [2] is 110 nM.

For `O=C(O)C(=O)O.Oc1ccc2c(c1)CC(CNCC(O)c1cccc(Cl)c1)CC2` (stereo not drawn) [Example 10, N-[(7-hydroxy-1,2,3,4-tetrahydronaphth-2-yl)methyl]-2-hydroxy-2-(3-chlorophenyl)ethanamine oxalate], in assay [1], the “selectivity ratio (EC50 uterus / EC50 colon)” value was “about 7” and the EC50 amounted to 50 nM. In assay [2], the EC50 was 7 nM.
